Test results: patent publication US8084456B2, “Pyrazine-based tubulin inhibitors” (YM Biosciences Australia Pty Ltd, priority 2002, dated 2011)

Experiments:
[1] = test system: DU145 (Prostate Cancer) cells; test: Cellular growth assay (MTT), DU145; type: cell-based; details: Homo sapiens, DU-145, 40 hr incubation, read-out: DU145 (inhibition of 50% of cellular growth)
Protocol: (§1) K562 (Chronic Myeloid Leukemia), PC3 (Prostate Cancer), and DU145 (Prostate Cancer) were obtained from the American Type Culture Collection (ATCC). K562 was grown in RPMI, with 10% FBS with Glutamx added. DU145 cells were cultured in DMED, with 10% FBS and Glutamx and MEM non-essential amino acids added. PC3 cells were grown in F12K medium, with 10% FBS and Glutamx and MEM non-essential amino acids added. All cells were grown at 37° C. in 5% CO2.

[2] = test system: PC3 (Prostate Cancer) cells; test: Cellular growth assay (MTT), PC3; type: cell-based; details: Homo sapiens, PC-3, 40 hr incubation, read-out: PC3 (inhibition of 50% of cellular growth)
Protocol: as §1

[3] = test system: K562 (Chronic Myeloid Leukemia) cells; test: Cellular growth assay (MTT), K562; type: cell-based; details: Homo sapiens, 40 hr incubation, read-out: K562 (inhibition of 50% of cellular growth)
Protocol: as §1

TelJak2 = TelJak2 (Homo sapiens, UniProt O60674); test: Cellular growth assay (MTT), BaF3 TEL/JAK2 cells; type: cell-based; details: 40 hr incubation, read-out: TelJak2 (inhibition of 50% of cellular growth)
TelJak3 = TelJak3 (Homo sapiens, UniProt P52333); test: Cellular growth assay (MTT), BaF3 TEL/JAK3 cells; type: cell-based; details: 40 hr incubation, read-out: TelJak3 (inhibition of 50% of cellular growth)
Tubulin = Tubulin assay (turbidometric microtubule assembly); type: biochemical; details: at 50 μM, absorbance at 340 nm, 37° C.
Protocol: Turbidometric assays of microtubule assembly were performed by incubating microtubule protein in cuvettes at 37° C. in a thermostatically controlled spectrophotometer measuring the change in absorbance at 340 nm over time. The microtubule protein was incubated with the each test compound at 0° C. and polymerisation was initiated by addition of 1 mM GTP, prior to heating to 37° C.

Chain of TelJak2 (O60674 with tags, fused parts or gaps): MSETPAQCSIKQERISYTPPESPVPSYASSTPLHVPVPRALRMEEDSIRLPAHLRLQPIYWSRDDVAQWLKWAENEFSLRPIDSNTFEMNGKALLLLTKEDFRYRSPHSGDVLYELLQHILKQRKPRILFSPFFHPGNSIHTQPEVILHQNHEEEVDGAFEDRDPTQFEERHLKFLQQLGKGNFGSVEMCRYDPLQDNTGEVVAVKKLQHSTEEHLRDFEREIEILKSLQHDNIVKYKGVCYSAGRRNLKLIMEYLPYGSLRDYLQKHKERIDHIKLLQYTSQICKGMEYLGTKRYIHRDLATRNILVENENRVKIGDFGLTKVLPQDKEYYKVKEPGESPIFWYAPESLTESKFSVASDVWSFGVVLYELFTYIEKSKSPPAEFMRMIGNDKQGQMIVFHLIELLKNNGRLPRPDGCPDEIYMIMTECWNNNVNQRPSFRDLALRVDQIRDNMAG
Chain of TelJak3 (P52333 with tags, fused parts or gaps): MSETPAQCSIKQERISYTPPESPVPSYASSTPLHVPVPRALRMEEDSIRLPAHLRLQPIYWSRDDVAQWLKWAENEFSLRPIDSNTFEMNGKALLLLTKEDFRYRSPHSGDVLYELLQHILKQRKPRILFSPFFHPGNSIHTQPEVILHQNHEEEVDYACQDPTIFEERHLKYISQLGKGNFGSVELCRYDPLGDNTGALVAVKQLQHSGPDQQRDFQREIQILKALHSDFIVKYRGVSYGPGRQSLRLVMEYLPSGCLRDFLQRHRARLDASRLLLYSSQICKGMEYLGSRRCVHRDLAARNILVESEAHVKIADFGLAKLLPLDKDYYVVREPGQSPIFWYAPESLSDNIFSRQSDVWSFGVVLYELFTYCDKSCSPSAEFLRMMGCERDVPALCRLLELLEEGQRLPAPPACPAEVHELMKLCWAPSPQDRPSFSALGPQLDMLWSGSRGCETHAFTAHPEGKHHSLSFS

Structure (SMILES) | IC50 [1] [µM] | IC50 [2] [µM] | IC50 [3] [µM] | IC50 (TelJak2) [µM] | IC50 (TelJak3) [µM] | Tubulin (inhibition of tubulin polymerisation) (Tubulin)
CCCC(Nc1cncc(-c2ccc(O)c(OC)c2)n1)c1ccc(F)cc1 (stereo not drawn) | ≤ 20 | > 20 | ≤ 20 | ≤ 20 | ≤ 20 | + (inhibited tubulin polymerisation by greater than 50% at 50 μM)
CCCC(Nc1cncc(-c2cc(C)c(O)c(C)c2)n1)c1ccc(F)cc1 (stereo not drawn) | ≤ 20 | ≤ 20 | ≤ 20 | ≤ 20 | ≤ 20 | + (inhibited tubulin polymerisation by greater than 50% at 50 μM)
